For test [1], the target named is novel receptor obtainable from rat forebrain tissue. In words: [3H]-Compound A radioligand binding assay. To be noted: competition with [3H]-Compound A (usually 20 nM). Here is the method: WO 92/22293 (SmithKline Beecham) discloses compounds having anti-convulsantactivity, including inter alia the compound trans-(+)-6-acetyl-4S-(4-fluorobenzoylamino)-3,4-dihydro-2,2-dimethyl-2H-1-benzopyran-3R-ol (hereinafter referred to as Compound A). […] The affinity of test compounds to the novel receptor site is assessed as follows.
Whole forebrain tissue is obtained from rats. The tissue is first homogenised in buffer (usually 50 mM Tris/HCl, pH 7.4). The homogenised tissue is washed by centrifugation and resuspension in the same buffer, then stored at -70° C. until used.
To carry out the radioligand binding assay, aliquots of tissue prepared as above (usually at a concentration of 1-2 mg protein/ml) are mixed with aliquots of [3H]-Compound A dissolved in buffer. The final concentration of [3H]-Compound A in the mixture is usually 20 nM. The mixture is incubated at room temperature for 1 hour. [3H]-Compound A bound to the tissue is then separated from unbound [3H]-Compound A by filtration through Whatman GF/B glass fibre filters. The filters are then washed rapidly with ice-cold buffer. The amount of radioactivity bound to the tissue trapped on the filters is measured by addition of liquid scintillation cocktail to the filters followed by counting in a liquid scintillation counter. […]

The subject of test [2] is electrically-induced seizures (maximal electroshock seizure threshold). In words: Maximal electroshock seizure (MEST) threshold test, rat model. In kind it is in vivo. Particulars: 2 mg/kg p.o., suspension in methyl cellulose, one hour post dosing, statistically significant. The method, then:
The maximal electroshock seizure (MEST) threshold test in rodents is particularly sensitive for detecting potential anticonvulsant properties^1. In this model, anticonvulsant agents elevate the threshold to electrically-induced seizures whilst proconvulsants lower the seizure threshold.
Mice (naive male, Charles River, U.K. CD-1 strain, 25-30 g) are randomly assigned to groups of 10-20 and dosed orally or intraperitoneally at a dose volume of 10 ml/kg with various doses of compound (0.3-300 mg/kg) or vehicle. Mice are then subjected at 30 or 60 min post dose to a single electroshock (0.1 sec, 50 Hz, sine wave form) administered via corneal electrodes. The mean current and standard error required to induce a tonic seizure in 50% (CC50) of the mice in a particular treatment group is determined by the `up and down` method of Dixon and Mood (1948)^2. Statistical comparisons between vehicle- and drug-treated groups are made using the method of Litchfield and Wilcoxon (1949)^3.
The threshold for maximal (tonic hindlimb extension) electroshock seizures in male rats (Sprague Dawley, 80-150 g, 6 weeks old) was determined by a Hugo Sachs Electronik stimulator which delivered a constant current (0.3 sec duration; from 1-300 mA in steps of 5-20 mA). […]
The percentage increase or decrease in CC50 for each group compared to the control is calculated. […]

Take `CN1CCc2ccc(NC(=O)N3CCc4ccccc43)cc2C1` [Example 1, 2,3-Dihydroindole-1-carboxylic Acid (2-methyl-1,2,3,4-tetrahydroisoquinolin-7-yl)amide]: in test [1], the pKi value entry is “greater than 8”. For the same compound, in test [2], the “increase in seizure threshold (CC50) compared to control” value is reported as 225%.

The values are drawn from patent US6274594A, “Isoquinoline derivatives and their therapeutical use” (SmithKline Beecham p.l.c., priority 1997, dated 2001).
